Patent publication US6403639B1, “2,3-dihydrobenzofuran derivatives” (Chugai Seiyaku Kabushiki Kaisha, priority 1997, dated 2002)
Where two headings read alike, the source gives them in different places.

Experiments:
[1] = tested on: porcine kidney-derived LLC-PK1 cells; assay: Protective effect against cell injury of porcine kidney-derived LLC-PK1 cells (2), oxidized LDL-induced LDH leakage; assay type: cell-based
Procedure: The oxidized LDL was prepared by placing 1 mg/ml of rabbit LDL in PBS (−) in the presence of 10 μM CuSO4 at 37° C. for 24 hours. Cell cultures were prepared by inoculating 1.25×10^4 cells/250 μl/well on a 48-well plate using M199 medium containing 3% FBS. Test compounds were dissolved or suspended in ethanol and added at a ratio of 1.25 μl/well 16 hours before or immediately before addition of the oxidized LDL to a concentration of 0.1, 1 or 10 μM in each well. The oxidized LDL was diluted twice with physiological saline and then added to cells at 62.5 μl/well to a concentration of 100 μg/ml and the cells were incubated for 6 hours after addition of the oxidized LDL. After the incubation, 162.5 μl of the culture medium was collected from each of the wells and measured for the lactate dehydrogenase (LDH) activity (Lactate Dehydrogenase (LD-L): SIGNA DIAGNOSTICS) which has leaked into the culture medium.
(§1) The cytoprotective effect was expressed as a % cytoprotection where the effect in wells containing the oxidized LDL but without any test compound is 0% and the effect in wells containing physiological saline in place of the oxidized LDL is 100%.
For the purpose of evaluating in vitro cytoprotective effect of the compounds of the present invention, protective effect against cell injury of porcine kidney-derived LLC-PK1 cells (ATCC-CRL-13921) induced by oxidized low-density lipoprotein (oxidized LDL) was examined in the same manner as in Test example 1.
Preparation of oxidized LDL and conditions for cell culture and addition of test compounds were the same as those in Test example 1, except that the oxidized LDL was not diluted with physiological saline and added to cells at 25 μl/well to a concentration of 91 μg/ml and the cells were incubated for 6 hours after addition of oxidized LDL. After the incubation, 150 μl of the culture medium was collected from each of the wells and measured for the lactate dehydrogenase (LDH) activity (Lactate Dehydrogenase (LD-L): SIGMA DIAGNOSTICS) which has leaked in the culture medium.

[2] = tested on: cultured mesangial cells; assay: Protective effect against cell injury of cultured mesangial cells, oxidized LDL-induced LDH leakage; assay type: cell-based, rats
Procedure: For the purpose of evaluating in vitro cytoprotective effect of the compounds of the present invention, protective effect against cell injury of cultured mesangial cells induced by oxidized low-density lipoprotein (LDL) was examined. The cells used were subcultures after 4 to 6 passages of the primary cultures of mesangial cells prepared from kidney of 4-week-old SD-strain male rats (Nippon Charles River Corp.).
The oxidized LDL was prepared by placing 1 mg/ml of rabbit LDL in PBS (−) in the presence of 10 μM CuSO4 at 37° C. for 24 hours. Cell cultures were prepared by inoculating 2.5×10^4 cells/250 μl/well on a 48-well plate using RPMI1640 medium containing 20% FBS. Immediately before addition of test compounds, the medium was replaced with RPMI1640 free from FBS. Test compounds were dissolved or suspended in ethanol and added at 1.25 μl/well 16 hours before or immediately before addition of the oxidized LDL to a concentration of 1, 3 or 10 μM in each well. Unlike Test example 1, the oxidized LDL was not diluted with physiological saline and added to cells at 25 μl/well to a concentration of 91 μg/ml and the cells were incubated for 8 hours after addition of the oxidized LDL. After the incubation, 150 μl of the culture medium was collected from each of the wells and measured for the lactate dehydrogenase activity (Lactate Dehydrogenase (LD-L): SIGMA DIAGNOSTICS) which has leaked in the culture medium.
as §1

[3] = Sus scrofa, LLC-PK1; 0.1 μM; test compounds added 16 hours before addition of oxidized LDL; oxidized LDL 91 μg/ml, 6 hours; read-out: % cytoprotection 1)
[4] = Sus scrofa, LLC-PK1; 0.1 μM; test compounds added immediately before addition of oxidized LDL; oxidized LDL 91 μg/ml, 6 hours; read-out: % cytoprotection 2)
[5] = Sus scrofa, LLC-PK1; 1 μM; test compounds added 16 hours before addition of oxidized LDL; oxidized LDL 91 μg/ml, 6 hours; read-out: % cytoprotection 1)
[6] = Sus scrofa, LLC-PK1; 1 μM; test compounds added immediately before addition of oxidized LDL; oxidized LDL 91 μg/ml, 6 hours; read-out: % cytoprotection 2)
[7] = Sus scrofa, LLC-PK1; 10 μM; test compounds added 16 hours before addition of oxidized LDL; oxidized LDL 91 μg/ml, 6 hours; read-out: % cytoprotection 1)
[8] = Sus scrofa, LLC-PK1; 10 μM; test compounds added immediately before addition of oxidized LDL; oxidized LDL 91 μg/ml, 6 hours; read-out: % cytoprotection 2)
[9] = Rattus norvegicus, Mesangial cell; 1 μM; test compounds added 16 hours before addition of oxidized LDL; oxidized LDL 91 μg/ml, 8 hours; read-out: % cytoprotection 1)
[10] = Rattus norvegicus, Mesangial cell; 1 μM; test compounds added immediately before addition of oxidized LDL; oxidized LDL 91 μg/ml, 8 hours; read-out: % cytoprotection 2)
[11] = Rattus norvegicus, Mesangial cell; 3 μM; test compounds added 16 hours before addition of oxidized LDL; oxidized LDL 91 μg/ml, 8 hours; read-out: % cytoprotection 1)
[12] = Rattus norvegicus, Mesangial cell; 3 μM; test compounds added immediately before addition of oxidized LDL; oxidized LDL 91 μg/ml, 8 hours; read-out: % cytoprotection 2)

| Compound | inhibition at 0.1 µM [1, 3] | inhibition at 0.1 µM [1, 4] | inhibition at 1 µM [1, 5] | inhibition at 1 µM [1, 6] | inhibition at 10 µM [1, 7] | inhibition at 10 µM [1, 8] | inhibition at 1 µM [2, 9] | inhibition at 1 µM [2, 10] | inhibition at 3 µM [2, 11] | inhibition at 3 µM [2, 12] |
| --- | --- | --- | --- | --- | --- | --- | --- | --- | --- | --- |
| CC(C)c1cc2c(c(C(C)(C)C)c1O)CC(C)(C)O2 [Example 20-(2), 4-t-Butyl-5-hydroxy-2,2-dimethyl-6-isopropyl-2,3-dihydrobenzofuran] | 95.3% | 61.9% | 98.1% | 97.8% | 97.3% | 99.1% |  |  |  |  |
| CC1(C)Cc2c(c(C(C)(C)C)cc(O)c2C(C)(C)C)O1 [Example 4, 4,7-Di-t-butyl-5-hydroxy-2,2-dimethyl-2,3-dihydrobenzofuran] | 11.3% | 14.4% | 100% | 99% | 98.3% | 99.8% | 31.1 ± 5.4% | 32.5 ± 1.9% | 66.4 ± 5.9% | 54.3 ± 9.7% |
| Cc1c(O)c(C(C)(C)C)cc2c1CC1(CCCCCC1)O2 [Example 14-(1), 6-t-Butyl-5-hydroxy-4-methyl-2,3-dihydrobenzofuran-2-spiro-1′-cycloheptane] | -6.5% | -9.2% | 103% | 101% | 104% | 103% | 19.7 ± 7.7% | 34.4 ± 1.5% | 59.3 ± 2.1% | 43.2 ± 2.8% |
| CC1Cc2cc(O)c(C(C)(C)C)cc2O1 (stereo not shown) [Example 16, 6-t-Butyl-5-hydroxy-2-methyl-2,3-dihydrobenzofuran] | 12.7% | 7.6% | 99.7% | 90.8% | 103% | 103% | 50.6 ± 5.9% | 18.7 ± 1.3% | 45.3 ± 9.4% | 28.3 ± 6.2% |
| CCC(C)c1c(O)c(C(C)(C)C)cc2c1CC1(CCCCCC1)O2 (stereo not shown) [Example 13, 6-t-Butyl-5-hydroxy-4-(1-methylpropyl)-2,3-dihydrobenzofuran-2-spiro-1′-cycloheptane] | 5.5% | 3.4% | 13.6% | 9.9% | 100% | 100% | 1.7 ± 2.9% | -4.3 ± 5.1% | 18.4 ± 9.2% | 11.1 ± 4.3% |
| C=CC(C)c1c(O)c(C(C)(C)C)cc2c1CC1(CCCCCC1)O2 (stereo not shown) [Example 12, 6-t-Butyl-5-hydroxy-4-(1-methyl-2-propenyl)-2,3-dihydrobenzofuran-2-spiro-1′-cycloheptane] | -15.5% | -8.4% | 77.9% | 79.4% | 102% | 102% | 11.8 ± 2.6% | 17.4 ± 4% | 37.9 ± 8.3% | 42.8 ± 3.7% |
| CC(C)c1c(O)c(C(C)(C)C)cc2c1CC(C)(C)O2 [Example 20-(1), 6-t-Butyl-5-hydroxy-2,2-dimethyl-4-isopropyl-2,3-dihydrobenzofuran] | -4.8% | -24% | 100% | 100% | 104% | 100% |  |  |  |  |
| CC(C)(C)c1cc2c(cc1O)CC1(CCCCCC1)O2 [Example 7, 6-t-Butyl-5-hydroxy-2,3-dihydrobenzofuran-2-spiro-1′-cycloheptane] | 19.1% | 14.7% | 104% | 104% | 105% | 105% | 19.3 ± 2.8% | 22 ± 1.9% | 18.1 ± 4.1% | 24.5 ± 0.8% |
| CCc1c(O)c(C(C)(C)C)cc2c1CC1(CCCCCC1)O2 [Example 14-(2), 6-t-Butyl-4-ethyl-5-hydroxy-2,3-dihydrobenzofuran-2-spiro-1′-cycloheptane] | -14.3% | -13.9% | 103% | 99.4% | 104% | 105% | 6.6 ± 8.4% | 23.1 ± 1.2% | 52.7 ± 14.3% | 45.6 ± 1.8% |
| CC(C)Cc1c(O)c(C(C)(C)C)cc2c1CC1(CCCCCC1)O2 [Example 11, 6-t-Butyl-5-hydroxy-4-(2-methylpropyl)-2,3-dihydrobenzofuran-2-spiro-1′-cycloheptane] | -2.7% | -20.4% | 53.4% | 88.7% | 102% | 103% | -3.5 ± 9.1% | 4.8 ± 5.1% | 13.8 ± 7.8% | 41.3 ± 1% |
| CC(C)c1cc2c(c(C(C)C)c1O)CC(C)(C)O2 [Example 18, 5-Hydroxy-2,2-dimethyl-4,6-diisopropyl-2,3-dihydrobenzofuran] | 12.1% | -1.9% | 100% | 99.7% | 100% | 101% |  |  |  |  |
| CCCc1c(O)c(C(C)(C)C)cc2c1CC1(CCCCCC1)O2 [Example 9, 6-t-Butyl-5-hydroxy-4-n-propyl-2,3-dihydrobenzofuran-2-spiro-1′-cycloheptane] | 12.9% | 11.5% | 47.7% | 58.9% | 104% | 104% | 14.4 ± 5.1% | 29.6 ± 2% | 56.2 ± 9.3% | 46.3 ± 1.7% |
| CCC1(CC)Cc2c(cc(C(C)C)c(O)c2C(C)C)O1 [Example 17, 2,2-Diethyl-5-hydroxy-4,6-diisopropyl-2,3-dihydrobenzofuran] | 40.5% | 22.1% | 99.9% | 101% | 99.9% | 98.4% |  |  |  |  |
| CC(C)(C)c1cc2c(cc1O)CCO2 [Example 15, 6-t-Butyl-5-hydroxy-2,3-dihydrobenzofuran] |  |  |  |  |  |  | -4 ± 3.5% | -14.6 ± 3.3% | 33.6 ± 11.5% | 5.4 ± 5.1% |
| Cc1c(O)c(C(C)(C)C)cc2c1CC(C)(C)O2 [Example 19, 6-t-Butyl-5-hydroxy-2,2,4-trimethyl-2,3-dihydrobenzofuran] | 31.1% | 13.2% | 104% | 102% | 102% | 102% |  |  |  |  |
